What all share (type): cell-based, human
For data set [1], the system named is HCT-116 cells. Kind of data set: Inhibition test for sphere-forming ability of cancer cells (Test Example 1), HCT-116. To be noted: for IC50: concentration for 50% inhibition of cell proliferation, read-out: IC50 (μmol/L) HCT-116 (Sphere IC50 value); for inhibitory effect on the sphere-forming ability of cancer cells: Test Example 1, summary in words, cell line not given (HCT-116, HT-29, FaDu tested). In outline:
(§1)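 Sphere formation, non-adherent, serum-free: 350-800 cells/well, DMEM/F12 + 2% B27, 20 ng/mL EGF, 10 ng/mL bFGF, 5 μg/mL insulin. Compound in 0.1% DMSO final, 4 d. CellTiter-Glo luminescence; IC50 (μmol/L) for 50% inhibition of proliferation.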

For data set [2], the system named is HT-29 cells. Kind of data set: Inhibition test for sphere-forming ability of cancer cells (Test Example 1), HT-29. Particulars: for IC50: concentration for 50% inhibition of cell proliferation, read-out: IC50 (μmol/L) HT-29 (Sphere IC50 value); for (100%-inhibition rate of cell proliferation) at 1 μmol/L, HT-29: value with %. The gist of the method: as §1
Data set [3] has as its system FaDu cells. Briefly: Inhibition test for sphere-forming ability of cancer cells (Test Example 1), FaDu. Particulars: for IC50: concentration for 50% inhibition of cell proliferation, read-out: IC50 (μmol/L) FaDu (Sphere IC50 value); for (100%-inhibition rate of cell proliferation) at 1 μmol/L, FaDu: value with %. In outline:
as §1

Where [4] appears, read: HCT-116 cells, 1 μmol/L, value with %.
Where [5] appears, read: Homo sapiens, read-out: (100%-inhibition rate of cell proliferation) at 1 μmol/L, 1 μmol/L, value with %.

Read-outs that look alike come from different tables or passages of the source.

For the molecule `O=C(Nc1cn(Cc2cccc(Cl)c2)cn1)c1ccc(OC2CCCC2)nc1` [Example 208], the values for the IC50 in data set [1] (HCT-116 cells), in data set [2] and in data set [3] were above 10 µmol/L, 0.81 µmol/L and 5.33 µmol/L, respectively.

`O=C(/C=C/c1ccc(-c2ccccc2)cc1)Nc1cn(Cc2cccc(Cl)c2)cn1` [Example 70]: the IC50 in data set [1] (HCT-116 cells) turned out to be 8.98 µmol/L; in data set [2], 0.08 µmol/L; in data set [3], 0.09 µmol/L.

Consider `COc1cc(/C=C/C(=O)Nc2cn(Cc3cccc(Cl)c3)cn2)cc(OC)c1OC` [Example 82], for which the IC50 is 6.51 µmol/L in data set [1] (HCT-116 cells), 0.99 µmol/L in data set [2] and 1.76 µmol/L in data set [3].

On to `Cc1cccc(/C=C/C(=O)Nc2cn(Cc3cccc(C(F)(F)F)c3)cn2)c1` [Example 105], for which the IC50 in data set [1] (Homo sapiens, HCT-116 cells) amounted to 5.05 µmol/L; in data set [2] (Homo sapiens), 0.94 µmol/L; in data set [3] (Homo sapiens) it was 0.85 µmol/L.

Consider `O=C(Nc1cn(Cc2cccc(Cl)c2)cn1)c1ccc(OCc2ccccc2)cc1` [Example 197], for which the “(100%-inhibition rate of cell proliferation) at 1 μmol/L, HCT-116” value in data set [1] (setting [4]) is recorded as 44.3%. The “(100%-inhibition rate of cell proliferation) at 1 μmol/L, HT-29” value in data set [2] is recorded as 39.0%. Also, the “(100%-inhibition rate of cell proliferation) at 1 μmol/L, FaDu” value in data set [3] was determined as 28.9%.

For `O=C(/C=C/c1c[nH]c2ccccc12)Nc1cn(Cc2cccc(Cl)c2)cn1` [Example 89], the IC50 came out at 0.96 µmol/L in data set [1] (HCT-116 cells), 0.61 µmol/L in data set [2] and 0.04 µmol/L in data set [3].

Take `COc1ccc(C(=O)Nc2cn(Cc3cccc(C(F)(F)F)c3)cn2)cn1` [Example 209]: the IC50 in data set [1] (HCT-116 cells) amounted to 4.24 µmol/L; in data set [2], 4.95 µmol/L; in data set [3], 6.45 µmol/L.

Consider `O=C(Nc1cn(Cc2cccc(C(F)(F)F)c2)cn1)c1ccc(OCC(F)(F)F)nc1` [Example 214], for which the IC50 in data set [1] (HCT-116 cells) is 5.31 µmol/L; in data set [2] it was 0.9 µmol/L; in data set [3], 3.52 µmol/L.

In the case of `O=C(/C=C/c1cnc2ccccc2c1)Nc1cn(Cc2cccc(Cl)c2)cn1` [Example 92], the IC50 in data set [1] (HCT-116 cells) worked out at 1.61 µmol/L; in data set [2], 0.62 µmol/L; in data set [3] it was 0.74 µmol/L.

For `O=C(/C=C/c1ccc(O)c(O)c1)Nc1cn(Cc2cccc(Cl)c2)cn1` [Example 21, (E)-N-(1-(3-Chlorobenzyl)-1H-imidazol-4-yl)-3-(3,4-dihydroxyphenyl)acrylamide], the IC50 in data set [1] (Homo sapiens, HCT-116 cells) came to 7.05 µmol/L; in data set [2] (Homo sapiens) it was 6.65 µmol/L; in data set [3] (Homo sapiens), 0.66 µmol/L.

Consider `O=C(/C=C/c1ccco1)Nc1cn(Cc2cccc(Cl)c2)cn1` [Example 87], for which the IC50 in data set [1] (HCT-116 cells) is 2.37 µmol/L; in data set [2], 5.53 µmol/L; in data set [3], 5.14 µmol/L.

Turning to `CCCCOc1ccc(C(=O)Nc2cn(Cc3cccc(Cl)c3)cn2)cn1` [Example 135], the “(100%-inhibition rate of cell proliferation) at 1 μmol/L, HCT-116” value in data set [1] (setting [4]) was 31.8%. Moreover, in data set [2], the “(100%-inhibition rate of cell proliferation) at 1 μmol/L, HT-29” value amounted to 28.0%. Also, the “(100%-inhibition rate of cell proliferation) at 1 μmol/L, FaDu” value in data set [3] came out at 25.0%.

Take `O=C(/C=C/c1ccoc1)Nc1cn(Cc2cccc(Cl)c2)cn1` [Example 88]: the IC50 in data set [1] (HCT-116 cells) is 0.88 µmol/L; in data set [2], 0.83 µmol/L; in data set [3], 0.91 µmol/L.

As for `O=C(/C=C/c1cccc(Oc2ccccc2)c1)Nc1cn(Cc2cccc(C(F)(F)F)c2)cn1` [Example 104], the IC50 was 2.09 µmol/L in data set [1] (Homo sapiens, HCT-116 cells); 0.79 µmol/L in data set [2] (Homo sapiens); 2.7 µmol/L in data set [3] (Homo sapiens).

Consider `CCOc1ccc(C(=O)Nc2cn(Cc3cccc(OC(F)(F)F)c3)cn2)cn1` [Example 213], for which the IC50 in data set [1] (HCT-116 cells) came to 0.81 µmol/L; in data set [2] it was 0.65 µmol/L; in data set [3] it was 0.79 µmol/L.

For `O=C(/C=C/c1ccc(C(=O)N2CCCC2)nc1)Nc1cn(Cc2cccc(Cl)c2)cn1` [Example 28], the IC50 amounted to 7.89 µmol/L in data set [1] (Homo sapiens, HCT-116 cells); 0.91 µmol/L in data set [2] (Homo sapiens); 0.8 µmol/L in data set [3] (Homo sapiens).

Turning to `CS(=O)(=O)c1ccc(/C=C/C(=O)Nc2cn(Cc3cccc(Cl)c3)cn2)cc1` [Example 13], the IC50 in data set [1] (Homo sapiens, HCT-116 cells) is 8.72 µmol/L; in data set [2] (Homo sapiens), 0.74 µmol/L; in data set [3] (Homo sapiens), 2.84 µmol/L.

Turning to `O=C(/C=C/c1ccc(C(F)(F)F)nc1)Nc1cn(Cc2cccc(Cl)c2)cn1` [Example 44], the IC50 in data set [1] (Homo sapiens, HCT-116 cells) is 0.1 µmol/L; in data set [2] (Homo sapiens) it was 0.05 µmol/L; in data set [3] (Homo sapiens) it was 0.07 µmol/L.

Take `O=C(/C=C/c1ccc(N2CCOCC2)cc1)Nc1cn(Cc2cccc(Cl)c2)cn1` [Example 96]: the IC50 worked out at 0.83 µmol/L in data set [1] (HCT-116 cells), 0.09 µmol/L in data set [2] and 0.07 µmol/L in data set [3]. The “inhibitory effect on the sphere-forming ability of cancer cells” value (shortened to “inhibitory effect”) in data set [1] was “particularly potent inhibitory effect”.

With `Cc1ccc(F)c(Cn2cnc(NC(=O)/C(F)=C/c3cccnc3)c2)c1F` [Example 116], the IC50 was above 10 µmol/L in data set [1] (Homo sapiens, HCT-116 cells); 0.8 µmol/L in data set [2] (Homo sapiens); 0.93 µmol/L in data set [3] (Homo sapiens).

For the molecule `O=C(/C=C/c1ccccc1O)Nc1cn(Cc2cccc(Cl)c2)cn1` [Example 54], the IC50 in data set [1] (HCT-116 cells) worked out at 8.38 µmol/L; in data set [2], 8.11 µmol/L; in data set [3], 0.82 µmol/L.

For `O=C(/C=C/c1ccsc1)Nc1cn(Cc2cccc(Cl)c2)cn1` [Example 119], the IC50 in data set [1] (Homo sapiens, HCT-116 cells) worked out at 0.67 µmol/L; in data set [2] (Homo sapiens), 0.16 µmol/L; in data set [3] (Homo sapiens) it was 0.56 µmol/L.

As for `O=C(/C=C/c1ccccc1C(F)(F)F)Nc1cn(Cc2cccc(Cl)c2)cn1` [Example 55], the IC50 was 0.96 µmol/L in data set [1] (HCT-116 cells), 1.2 µmol/L in data set [2] and 3.77 µmol/L in data set [3].

Consider `COCCCOc1ccc(C(=O)Nc2cn(Cc3cccc(Cl)c3)cn2)cn1` [Example 204], for which the figures for the IC50 in data set [1] (HCT-116 cells), in data set [2] and in data set [3] were 4.56 µmol/L, 0.72 µmol/L and 0.86 µmol/L, respectively.

On to `O=C(/C=C/c1cccc(O)c1)Nc1cn(Cc2cccc(Cl)c2)cn1` [Example 65], for which the IC50 was found to be 0.95 µmol/L in data set [1] (HCT-116 cells), 2.66 µmol/L in data set [2] and 0.06 µmol/L in data set [3]. In data set [1], the “inhibitory effect” value was “particularly potent inhibitory effect”.

As to `COc1ccc(/C=C/C(=O)Nc2cn(Cc3cccc(Cl)c3)cn2)c(OC)c1` [Example 71], the IC50 in data set [1] (HCT-116 cells) turned out to be 0.23 µmol/L; in data set [2] it was 0.03 µmol/L; in data set [3] it was 0.06 µmol/L. The “inhibitory effect” value in data set [1] is reported as “particularly potent inhibitory effect”.

For the molecule `Cc1ccc(/C=C/C(=O)Nc2cn(Cc3cccc(Cl)c3)cn2)cc1` [Example 49], the IC50 amounted to 0.1 µmol/L in data set [1] (HCT-116 cells), 0.06 µmol/L in data set [2] and 0.08 µmol/L in data set [3]. Moreover, the “inhibitory effect” value in data set [1] is “particularly potent inhibitory effect”.

Regarding `O=C(Nc1cn(Cc2cccc(C(F)(F)F)c2)cn1)/C(F)=C/c1cccnc1` [Example 106], the IC50 worked out at 8.29 µmol/L in data set [1] (Homo sapiens, HCT-116 cells); 0.8 µmol/L in data set [2] (Homo sapiens); 3.06 µmol/L in data set [3] (Homo sapiens).

On to `O=C(/C=C/c1cc(Cl)ccc1Cl)Nc1cn(Cc2cccc(Cl)c2)cn1` [Example 83], for which the IC50 in data set [1] (HCT-116 cells) was found to be 0.8 µmol/L; in data set [2], 0.6 µmol/L; in data set [3], 0.91 µmol/L.

As to `COCCOc1ccc(C(=O)Nc2cn(Cc3cccc(Cl)c3)cn2)cn1` [Example 244, N-[1-(3-Chlorobenzyl)-1H-imidazol-4-yl]-6-(2-methoxyethoxy)nicotinamide], the viability at 1 µM in data set [1] (Homo sapiens, read-out: (100%-inhibition rate of cell proliferation) at 1 μmol/L, HCT-116 cells, 1 μmol/L, value with %) turned out to be 46.7%; in data set [2] (setting [5]) it was 27%; in data set [3] (setting [5]), 36.7%.

`O=C(/C=C/c1ccc(F)cc1)Nc1cn(Cc2cccc(Cl)c2)cn1` [Example 62]: the values for the IC50 in data set [1] (HCT-116 cells), in data set [2] and in data set [3] were 0.74 µmol/L, 0.09 µmol/L and 0.56 µmol/L, respectively.

Turning to `COc1ccc(C(=O)Nc2cn(Cc3c(F)ccc(C)c3F)cn2)cc1OC` [Example 167], in data set [1] (setting [4]), the “(100%-inhibition rate of cell proliferation) at 1 μmol/L, HCT-116” value was 30.5%. Also, in data set [2], the “(100%-inhibition rate of cell proliferation) at 1 μmol/L, HT-29” value is 15.6%. The “(100%-inhibition rate of cell proliferation) at 1 μmol/L, FaDu” value in data set [3] came out at 59.3%.

As for `COc1ccccc1/C=C/C(=O)Nc1cn(Cc2cccc(Cl)c2)cn1` [Example 77], the figures for the IC50 in data set [1] (HCT-116 cells), in data set [2] and in data set [3] were 0.84 µmol/L, 0.38 µmol/L and below 0.01 µmol/L, respectively. Besides, in data set [1], the “inhibitory effect” value is “particularly potent inhibitory effect”.

With `Nc1ccc(/C=C/C(=O)Nc2cn(Cc3cccc(Cl)c3)cn2)cn1` [Example 19, (E)-3-(6-Aminopyridin-3-yl)-N-(1-(3-chlorobenzyl)-1H-imidazol-4-yl)acrylamide], the IC50 in data set [1] (Homo sapiens, HCT-116 cells) stood at 0.89 µmol/L; in data set [2] (Homo sapiens), 0.6 µmol/L; in data set [3] (Homo sapiens), 0.66 µmol/L.

For `COc1ccc(/C=C/C(=O)Nc2cn(Cc3cccc(Cl)c3)cn2)cc1Cl` [Example 80], the IC50 in data set [1] (HCT-116 cells) was above 10 µmol/L; in data set [2], 7.04 µmol/L; in data set [3], 0.87 µmol/L.

For `COc1cc(/C=C/C(=O)Nc2cn(Cc3cccc(Cl)c3)cn2)ccc1O` [Example 24], the IC50 in data set [1] (Homo sapiens, HCT-116 cells) is 7.42 µmol/L; in data set [2] (Homo sapiens), above 10 µmol/L; in data set [3] (Homo sapiens) it was 5.97 µmol/L.

With `CCOc1ccc(/C=C/C(=O)Nc2cn(Cc3cccc(OC(F)(F)F)c3)cn2)cn1` [Example 112], the IC50 was above 10 µmol/L in data set [1] (Homo sapiens, HCT-116 cells); 0.04 µmol/L in data set [2] (Homo sapiens); 0.07 µmol/L in data set [3] (Homo sapiens). In addition, the “inhibitory effect” value in data set [1] is given as “particularly potent inhibitory effect”.

For the molecule `CCOc1ccc(C(=O)Nc2cn(Cc3c(F)ccc(C)c3F)cn2)cn1` [Example 221], the IC50 in data set [1] (HCT-116 cells) came to 0.51 µmol/L; in data set [2] it was 0.59 µmol/L; in data set [3], 0.89 µmol/L.
